Tests used:
[1] = Evaluation of threshold of smell; settings: diluted with dipropylene glycol, 10 to 0.001 ppm; lower limit concentration at which the smell can be identified
Bhas42 cells = experiment: Carcinogenicity prediction test (transformation test, OECD 231GD); assay type: cell-based; settings: in vitro transformation test using Bhas42 cells, negative or positive
Method: Using the aldehyde compositions obtained in Examples and Lilial (3-(p-tert-butylphenyl)-2-methylpropanal), a transformation test (an in vitro carcinogenicity prediction test using Bhas42 cells) was performed based on OECD 231GD to determine whether the carcinogenicity was negative or positive. When the result of this test is negative, it is predicted that there is no possibility of causing carcinogenicity, and safety is high.

SMILES: CC(C=O)Cc1ccc(C(C)(C)C)cc1 (centres unmarked) [Comparative Example 2, 3-(p-tert-butylphenyl)-2-methylpropanal]
- Threshold of smell (ppm) [1]: 1 ppm
- Carcinogenicity prediction test (Bhas42 cells): Positive

— patent US20250382251A1, “ALDEHYDE COMPOSITION” (MITSUBISHI GAS CHEMICAL COMPANY, INC., priority 2022, published 2025)
